This is an account of results in ChEMBL document CHEMBL5579819, “Dual-target inhibitors of colchicine binding site for cancer treatment” (Eur J Med Chem, 2024).

For series [1], the target named is Triosephosphate isomerase (Homo sapiens, UniProt P60174). As to the kind of experiment: Inhibition of TPI (unknown origin).
For series [2], the system named is Ishikawa. As to the kind of experiment: Antiproliferative activity against human Ishikawa cells assessed as reduction in cell growth incuabted for 48 hrs by MTT assay. It is filed as functional, cell-based.
The target in series [3] is Histone deacetylase 2 (Homo sapiens, UniProt Q92769). As to the kind of experiment: Inhibition of HDAC2 (unknown origin).
Series [4] has as its system U-937. As to the kind of experiment: Cytotoxicity against human U-937 cells. It is filed as functional, cell-based.
In series [5] the test system is A549. As to the kind of experiment: Cytotoxicity against human A549 cells. It is filed as functional, cell-based.
Series [6] concerns the target Platelet-derived growth factor receptor beta (Homo sapiens, UniProt P09619). As to the kind of experiment: Inhibition of human recombinant PDGFRbeta incubated for 40 mins by Kinase-Glo luminescent kinase assay.
Series [7] concerns MCF7. As to the kind of experiment: Cytotoxicity against human MCF7 cells assessed as reduction in cell growth incubated for 24 hrs by MTT assay. To be noted: MCF7, 24 h. A general note: Formazan colour is commonly taken as a measure of viable cells.
For series [8], the target named is Vascular endothelial growth factor receptor 2 (Homo sapiens, UniProt P35968). The series can be described thus: Inhibition of VEGFR2 (unknown origin).
In series [9] the test system is MCF7. The series can be described thus: Cytotoxicity against human MCF7 cells assessed as reduction in cell viability by MTT assay.
The test system of series [10] is HCT-116. As to the kind of experiment: Cytotoxicity against human HCT-116 cells assessed as reduction in cell viability incubated fro 24 hrs by MTT assay. The series is classed as functional, cell-based. The following applies: HCT-116, 24 h.
The subject of series [11] is HepG2. The series can be described thus: Cytotoxicity against human HepG2 cells assessed as reduction in cell viability incubated for 24 hrs by MTT assay. The following applies: HepG2, 24 h. It is filed as functional, cell-based.
Series [12] has as its system MCF7. The series can be described thus: Cytotoxicity against human MCF7 cells assessed as reduction in cell viability incubated for 24 hrs by MTT assay. To be noted: MCF7, 24 h. It is filed as functional, cell-based.
Series [13] relates to HeLa. The series can be described thus: Cytotoxicity against human HeLa cells assessed as reduction in cell viability measured for 48 hrs by MTT assay. It is filed as functional, cell-based.
In series [14] the test system is SiHa. The series can be described thus: Cytotoxicity against human SiHa cells assessed as reduction in cell viability measured for 48 hrs by MTT assay. It is filed as functional, cell-based.
The test system of series [15] is MCF7. The series can be described thus: Cytotoxicity against human MCF7 cells assessed as reduction in cell growth incubated for 72 hrs by MTT assay. The following applies: MCF7, 72 h. The series is classed as functional, cell-based.
Series [16] can be described thus: Selectivity index, ratio of CC50 for cytotoxicity against African green monkey Vero cells to IC50 for cytotoxicity against human HepG2 cells. The series is classed as toxicity, cell-based. To be noted: Vero cells (CC50) and HepG2 cells (IC50).
For series [17], the system named is HepG2. As to the kind of experiment: Cytotoxicity against human HepG2 cells assessed as reduction in cell growth incubated for 24 hrs by MTT assay. The following applies: HepG2, 24 h. The series is classed as functional, cell-based.
Series [18] deals with A549. As to the kind of experiment: Cytotoxicity against human A549 cells assessed as reduction in cell growth incubated for 24 hrs by MTT assay. It is filed as functional, cell-based. The following applies: A549, 24 h.
The subject of series [19] is MCF7. The series can be described thus: Cytotoxicity against human MCF7 cells assessed as cell growth inhibition incubated for 24 hrs by MTT assay. It is filed as functional, cell-based. The following applies: MCF7, 24 h.
Series [20] addresses Tubulin. As to the kind of experiment: Inhibition of tubulin polymerization (unknown origin) by fluorescence based assay. It is filed as protein-complex assay, Homo sapiens.
The test system of series [21] is COLO 205. The series can be described thus: Cytotoxicity against human COLO 205 cells assessed as reduction in cell growth incubated for 24 hrs by SRB assay. The series is classed as functional, cell-based. The following applies: COLO 205, 24 h. In general terms: Sulforhodamine B stains cellular protein and so reports cell mass.
Series [22] in a line: Metabolic stability in BALB/c mouse liver microsome assessed as half life incubated for 1 hrs by LC-MS/MS analysis. It is filed as ADME. To be noted: liver microsomes. (Microsomes from liver hold many membrane-bound enzymes, among them those of drug oxidation.)
Series [23] can be described thus: AUC (0 to t) in BALB/c mouse at 50 mg/kg, po measured for 24 hrs by LC-MS/MS analysis. The series is classed as ADME, organism-based. The following applies: in vivo.
Series [24] in a line: Cmax in BALB/c mouse at 50 mg/kg, po measured for 24 hrs by LC-MS/MS analysis. The series is classed as ADME, organism-based. The following applies: in vivo.

Structures are written as SMILES.

As a reminder, the IC50 is the concentration at which inhibition is half-maximal. What is called half-life is how long it takes for the measured level to halve. What is called AUC(0-t) is the area under the concentration-time curve up to a stated or last time point. As usually defined, the Cmax is the maximum level reached in the sampled fluid or tissue.

Triosephosphate isomerase, sequence (P60174 whole entry): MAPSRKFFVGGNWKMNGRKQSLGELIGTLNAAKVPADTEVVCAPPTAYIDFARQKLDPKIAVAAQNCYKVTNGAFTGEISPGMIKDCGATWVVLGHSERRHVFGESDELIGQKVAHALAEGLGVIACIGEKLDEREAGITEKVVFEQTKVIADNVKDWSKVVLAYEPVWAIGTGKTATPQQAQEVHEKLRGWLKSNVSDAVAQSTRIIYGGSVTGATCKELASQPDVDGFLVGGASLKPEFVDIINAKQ
Vascular endothelial growth factor receptor 2, sequence (P35968 whole entry): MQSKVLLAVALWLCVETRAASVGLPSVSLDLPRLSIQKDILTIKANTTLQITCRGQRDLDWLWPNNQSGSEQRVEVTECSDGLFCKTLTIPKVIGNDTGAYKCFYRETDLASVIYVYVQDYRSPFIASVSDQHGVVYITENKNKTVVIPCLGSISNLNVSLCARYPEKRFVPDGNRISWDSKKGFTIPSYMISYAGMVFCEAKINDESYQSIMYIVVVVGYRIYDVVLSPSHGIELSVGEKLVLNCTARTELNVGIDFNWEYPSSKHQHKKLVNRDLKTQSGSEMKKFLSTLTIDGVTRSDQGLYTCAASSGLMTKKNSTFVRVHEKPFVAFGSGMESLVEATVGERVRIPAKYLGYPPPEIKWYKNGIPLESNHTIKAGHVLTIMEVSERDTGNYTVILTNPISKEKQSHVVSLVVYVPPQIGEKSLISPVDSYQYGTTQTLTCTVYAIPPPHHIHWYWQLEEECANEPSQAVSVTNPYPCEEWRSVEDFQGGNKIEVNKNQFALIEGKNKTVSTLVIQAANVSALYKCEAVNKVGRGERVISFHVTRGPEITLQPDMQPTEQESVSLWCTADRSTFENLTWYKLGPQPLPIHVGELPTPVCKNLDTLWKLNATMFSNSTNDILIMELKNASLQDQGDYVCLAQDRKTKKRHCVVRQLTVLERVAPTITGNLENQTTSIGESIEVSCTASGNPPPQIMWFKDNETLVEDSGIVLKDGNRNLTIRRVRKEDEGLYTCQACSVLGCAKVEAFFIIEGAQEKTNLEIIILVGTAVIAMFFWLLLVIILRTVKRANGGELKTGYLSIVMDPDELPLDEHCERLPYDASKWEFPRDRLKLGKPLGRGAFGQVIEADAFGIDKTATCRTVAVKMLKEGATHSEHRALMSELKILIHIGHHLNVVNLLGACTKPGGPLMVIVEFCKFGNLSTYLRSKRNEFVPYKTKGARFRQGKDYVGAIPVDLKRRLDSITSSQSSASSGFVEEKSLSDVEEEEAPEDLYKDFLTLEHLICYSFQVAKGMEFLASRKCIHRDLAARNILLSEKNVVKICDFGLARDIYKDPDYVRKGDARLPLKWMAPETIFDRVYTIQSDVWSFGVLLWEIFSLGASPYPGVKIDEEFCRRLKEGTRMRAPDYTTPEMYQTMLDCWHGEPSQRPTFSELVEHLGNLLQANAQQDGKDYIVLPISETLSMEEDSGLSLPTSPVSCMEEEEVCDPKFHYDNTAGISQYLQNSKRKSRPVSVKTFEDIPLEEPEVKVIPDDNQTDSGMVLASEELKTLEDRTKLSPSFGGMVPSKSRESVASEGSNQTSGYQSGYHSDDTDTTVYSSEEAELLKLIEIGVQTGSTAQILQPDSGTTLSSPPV
Platelet-derived growth factor receptor beta, sequence (P09619 whole entry): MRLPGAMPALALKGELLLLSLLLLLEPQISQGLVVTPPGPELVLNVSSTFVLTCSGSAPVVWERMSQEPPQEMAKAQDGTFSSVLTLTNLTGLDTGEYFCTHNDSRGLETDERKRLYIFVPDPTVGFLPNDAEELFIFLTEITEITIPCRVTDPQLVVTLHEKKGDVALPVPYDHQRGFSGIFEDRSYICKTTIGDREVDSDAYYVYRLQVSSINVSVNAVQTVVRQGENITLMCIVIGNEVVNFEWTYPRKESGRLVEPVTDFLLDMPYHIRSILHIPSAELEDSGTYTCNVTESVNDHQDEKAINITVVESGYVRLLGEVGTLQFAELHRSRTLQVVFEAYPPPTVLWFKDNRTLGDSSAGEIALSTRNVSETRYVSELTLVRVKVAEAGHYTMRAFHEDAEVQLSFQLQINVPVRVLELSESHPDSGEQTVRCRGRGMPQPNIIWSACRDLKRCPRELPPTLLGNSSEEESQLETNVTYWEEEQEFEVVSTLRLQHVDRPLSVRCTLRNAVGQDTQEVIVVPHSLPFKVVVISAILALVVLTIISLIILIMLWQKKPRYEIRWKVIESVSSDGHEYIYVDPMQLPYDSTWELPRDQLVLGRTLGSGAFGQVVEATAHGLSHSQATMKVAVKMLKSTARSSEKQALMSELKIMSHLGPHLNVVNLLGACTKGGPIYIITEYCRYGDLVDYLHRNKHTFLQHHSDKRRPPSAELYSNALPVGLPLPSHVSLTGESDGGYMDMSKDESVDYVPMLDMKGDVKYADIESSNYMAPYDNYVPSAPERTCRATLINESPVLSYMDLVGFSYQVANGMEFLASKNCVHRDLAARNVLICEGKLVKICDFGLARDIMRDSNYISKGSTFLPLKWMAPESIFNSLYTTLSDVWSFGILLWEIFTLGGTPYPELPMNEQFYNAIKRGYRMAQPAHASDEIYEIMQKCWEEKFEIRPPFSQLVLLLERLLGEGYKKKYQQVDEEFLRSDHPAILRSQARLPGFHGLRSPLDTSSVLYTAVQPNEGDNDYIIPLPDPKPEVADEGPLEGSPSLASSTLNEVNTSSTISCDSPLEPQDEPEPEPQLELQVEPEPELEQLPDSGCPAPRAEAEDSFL
Histone deacetylase 2, sequence (Q92769 whole entry): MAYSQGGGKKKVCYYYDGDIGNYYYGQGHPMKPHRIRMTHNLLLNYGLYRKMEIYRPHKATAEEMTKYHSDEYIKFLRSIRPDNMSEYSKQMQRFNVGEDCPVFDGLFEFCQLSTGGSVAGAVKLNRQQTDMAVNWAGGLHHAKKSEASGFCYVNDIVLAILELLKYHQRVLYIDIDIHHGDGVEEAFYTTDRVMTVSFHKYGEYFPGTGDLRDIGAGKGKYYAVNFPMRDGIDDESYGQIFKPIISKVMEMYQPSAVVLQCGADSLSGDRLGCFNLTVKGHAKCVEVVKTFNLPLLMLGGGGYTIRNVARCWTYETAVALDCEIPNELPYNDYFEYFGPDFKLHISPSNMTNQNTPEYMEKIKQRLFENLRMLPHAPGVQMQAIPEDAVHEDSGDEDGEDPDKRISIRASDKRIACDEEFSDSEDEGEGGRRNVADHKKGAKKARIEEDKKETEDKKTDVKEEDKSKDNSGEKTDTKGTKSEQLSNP

Regarding `O=c1cc(-c2ccc(F)cc2)oc2cc(-c3ccoc3)ccc12`, the IC50 was found to be 1400 nM in [1] and 1000 nM in series [2].
Regarding `COc1cc2c(cc1OCc1ccc(C(=O)Nc3ccccc3N)cc1)CC[C@@H]1[C@@H]2CC[C@]2(C)[C@@H](O)CC[C@@H]12`, the IC50 in series [3] is 60 nM; in series [4], 371 nM; in [5], 1780 nM.
In the case of `O=C1Nc2ccccc2/C1=C/c1ccc(OCC(=O)c2ccc(Br)cc2)cc1`, the IC50 in [1] was 7990 nM; in [6] it was 3.18 µM; in series [7] it was 14.8 µM; in series [8] it was 5.75 µM; in series [9], 14.8 µM.
Turning to `CCOCCSc1nc(-c2ccccc2Cl)nn1CCOCC`, the IC50 in [10] is 3.36 µM; in [11], 1300 nM; in series [12], 5.16 µM.
Consider `COc1cc2oc(C(=O)c3cc(OC)c(OC)c(OC)c3)cc2cc1/C=C/C(=O)O`, for which the IC50 turned out to be 1060 nM in [13] and 1100 nM in [14].
With `Nc1ccccc1NC(=O)c1ccc(CN2CCC/C(=C\c3cccc(Cl)c3)C2=O)cc1`, the IC50 in series [15] turned out to be 2100 nM.
Consider `CN(C)c1ccc(/C=N/c2c(N)n(C)c(=O)[nH]c2=O)cc1`, for which, in series [16], the selectivity ratio was determined as 3.74. For the same compound, the IC50 in [17] was 1070 nM; in series [18], 1530 nM; in series [1], 1900 nM; in [19], 3.17 µM.
`COc1cc(OC)c(/C=C2/C(=O)Nc3cc(Cl)ccc32)c(OC)c1`: the half-maximal inhibitory concentration (IC50) in series [20] was determined as 1660 nM; in [21], 200 nM.
With `CCOC(=O)Nc1nc2ccc(-c3cc(Cc4n[nH]c(=O)c5ccccc45)ccc3F)cc2[nH]1`, in [1], the IC50 is 990 nM. Further, the half-life in [22] is 257 min. Moreover, the AUC(0-t) at 24 h in [23] came out at 87600 ng·h/mL. Further, the concentration in series [24] peaked (Cmax) at 12200 ng/mL.
